ChEMBL document CHEMBL5356956, “Optimizing and characterizing 4-methyl substituted pyrazol-3-carboxamides leading to the peripheral cannabinoid 1 receptor inverse agonist TM38837” (Bioorg Med Chem Lett, 2024)
Converted amounts (≈) assume the structure as drawn.

What was measured:
[1] = Drug concentration in DIO mouse brain at 10 mg/kg, po measured for 6 hrs relative to plasma concentration; assay type: ADME, organism-based
[2] = Drug concentration in DIO mouse brain at 10 mg/kg, po measured for 6 hrs; assay type: ADME, organism-based; conditions: read-out: Drug uptake
[3] = Drug concentration in DIO mouse adipose tissue at 10 mg/kg, po measured for 6 hrs; assay type: ADME, organism-based; conditions: read-out: Drug uptake
[4] = Drug concentration in DIO mouse liver at 10 mg/kg, po measured for 6 hrs; assay type: ADME, organism-based; conditions: read-out: Drug uptake
[5] = Drug concentration in DIO mouse adipose tissue assessed as fold increase at 10 mg/kg, po measured for 6 hrs relative to plasma concentration; assay type: ADME, organism-based; conditions: read-out: FC
[6] = In vivo inverse agonist activity at CB1 receptor in DIO mouse assessed as efficacy at 10 mg/kg, po measured after 6 hrs; assay type: functional
[7] = Lipophilicity, logD of compound by chromatographic analysis; assay type: physicochemical
[8] = biological target: T1, Cannabinoid receptor 1 (Homo sapiens, UniProt P21554); test: Antagonist activity at human CB1 receptor expressed in CHO-K1 cell membrane in presence of CP55940 by GTP-gamma-S assay; assay type: functional, cell membranes
[9] = biological target: T1, Cannabinoid receptor 1; test: Inverse agonist activity at human CB1 receptor expressed in CHO-K1 cell membrane by GTP-gamma-S assay; assay type: functional, cell membranes
[10] = biological target: T1, Cannabinoid receptor 1; test: Inverse agonist activity at human CB1 receptor expressed in African green monkey COS7 cells co-expressing G-protein in presence of CP55940 by IP3 assay; assay type: functional, cell membranes, Membrane
[11] = biological target: Cannabinoid receptor 2 (Homo sapiens, UniProt P34972); test: Inverse agonist activity at human CB2 receptor expressed in CHO-K1 cell membrane in presence of CP55940 by GTP-gamma-S assay; assay type: functional, cell membranes
[12] = Subchronic toxicity in DIO mouse assessed as reduction in body weight at 10 mg/kg, po measured after 7 days; assay type: organism-based; set-up: scale not given: the % may be the effect or the level left; conditions: in vivo, 168 h, time 7 day
[13] = Drug concentration in DIO mouse plasma at 10 mg/kg, po measured for 6 hrs; assay type: ADME, organism-based
[14] = Solubility of compound; assay type: physicochemical
[15] = Clearance in rat hepatocytes assessed per million cells; assay type: ADME, cell-based, Hepatocyte
[16] = biological target: hERG (Homo sapiens, UniProt Q12809); test: Inhibition of hERG at 10 uM by patch clamp assay relative to control; assay type: toxicity
[17] = biological target: CYP2C9 (Homo sapiens, UniProt P11712); test: Inhibition of CYP2C9 (unknown origin) at 10 uM relative to control; assay type: ADME
[18] = biological target: Voltage-gated inwardly rectifying potassium channel KCNH2 (Homo sapiens, UniProt Q12809); test: Inhibition of hERG by patch clamp assay; assay type: toxicity
Chain of Voltage-gated inwardly rectifying potassium channel KCNH2 (Q12809 whole entry): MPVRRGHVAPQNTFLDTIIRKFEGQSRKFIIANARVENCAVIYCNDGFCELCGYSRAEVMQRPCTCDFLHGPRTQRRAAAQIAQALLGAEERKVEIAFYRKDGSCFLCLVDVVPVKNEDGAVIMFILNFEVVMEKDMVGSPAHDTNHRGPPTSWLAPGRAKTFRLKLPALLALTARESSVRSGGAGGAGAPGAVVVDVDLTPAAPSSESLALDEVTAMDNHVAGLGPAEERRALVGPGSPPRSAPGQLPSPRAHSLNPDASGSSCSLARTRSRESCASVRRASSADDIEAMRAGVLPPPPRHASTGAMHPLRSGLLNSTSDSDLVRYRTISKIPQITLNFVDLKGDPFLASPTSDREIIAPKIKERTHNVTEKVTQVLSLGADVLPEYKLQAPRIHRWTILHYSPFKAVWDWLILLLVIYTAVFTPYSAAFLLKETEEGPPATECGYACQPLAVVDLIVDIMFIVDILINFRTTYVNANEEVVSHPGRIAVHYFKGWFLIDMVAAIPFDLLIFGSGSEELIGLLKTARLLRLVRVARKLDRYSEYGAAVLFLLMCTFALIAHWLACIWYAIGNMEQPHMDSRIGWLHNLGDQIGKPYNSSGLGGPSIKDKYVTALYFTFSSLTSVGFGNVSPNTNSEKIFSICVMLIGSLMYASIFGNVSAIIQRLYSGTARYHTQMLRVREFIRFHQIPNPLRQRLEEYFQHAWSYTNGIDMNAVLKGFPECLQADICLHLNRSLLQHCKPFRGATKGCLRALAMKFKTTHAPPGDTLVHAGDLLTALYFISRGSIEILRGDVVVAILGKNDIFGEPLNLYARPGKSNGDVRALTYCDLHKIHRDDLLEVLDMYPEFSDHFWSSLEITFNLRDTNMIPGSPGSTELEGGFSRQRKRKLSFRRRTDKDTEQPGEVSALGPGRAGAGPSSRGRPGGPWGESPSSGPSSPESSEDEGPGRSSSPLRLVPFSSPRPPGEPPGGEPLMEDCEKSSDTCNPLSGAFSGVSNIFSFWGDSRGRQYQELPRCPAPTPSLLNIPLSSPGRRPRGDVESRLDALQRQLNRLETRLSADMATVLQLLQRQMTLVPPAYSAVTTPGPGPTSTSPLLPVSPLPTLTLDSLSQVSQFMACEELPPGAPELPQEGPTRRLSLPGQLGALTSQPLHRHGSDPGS

Chain of hERG (Q12809 whole entry): as above
T1 sequence (P21554 whole entry): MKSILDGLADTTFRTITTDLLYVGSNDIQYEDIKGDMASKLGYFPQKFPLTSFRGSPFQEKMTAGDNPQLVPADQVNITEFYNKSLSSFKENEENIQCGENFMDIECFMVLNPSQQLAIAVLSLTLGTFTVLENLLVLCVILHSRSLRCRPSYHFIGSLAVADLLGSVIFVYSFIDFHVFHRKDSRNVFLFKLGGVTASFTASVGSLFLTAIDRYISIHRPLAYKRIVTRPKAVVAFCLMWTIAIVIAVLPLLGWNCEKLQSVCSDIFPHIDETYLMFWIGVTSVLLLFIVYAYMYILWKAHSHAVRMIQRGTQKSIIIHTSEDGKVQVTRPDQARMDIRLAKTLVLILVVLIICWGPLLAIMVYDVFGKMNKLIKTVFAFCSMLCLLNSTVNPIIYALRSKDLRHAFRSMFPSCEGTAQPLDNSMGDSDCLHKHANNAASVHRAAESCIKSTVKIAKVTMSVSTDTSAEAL
Chain of Cannabinoid receptor 2 (P34972 whole entry): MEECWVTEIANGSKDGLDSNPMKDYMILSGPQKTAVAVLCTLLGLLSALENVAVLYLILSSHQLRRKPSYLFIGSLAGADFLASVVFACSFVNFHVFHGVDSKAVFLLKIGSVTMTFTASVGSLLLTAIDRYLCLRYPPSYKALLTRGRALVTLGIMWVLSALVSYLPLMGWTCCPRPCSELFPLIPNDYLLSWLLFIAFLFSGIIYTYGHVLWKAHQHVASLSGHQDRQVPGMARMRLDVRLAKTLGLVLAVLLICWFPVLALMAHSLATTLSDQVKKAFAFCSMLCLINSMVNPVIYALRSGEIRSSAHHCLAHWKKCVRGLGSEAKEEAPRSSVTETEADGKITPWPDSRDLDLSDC
Chain of CYP2C9 (P11712 whole entry): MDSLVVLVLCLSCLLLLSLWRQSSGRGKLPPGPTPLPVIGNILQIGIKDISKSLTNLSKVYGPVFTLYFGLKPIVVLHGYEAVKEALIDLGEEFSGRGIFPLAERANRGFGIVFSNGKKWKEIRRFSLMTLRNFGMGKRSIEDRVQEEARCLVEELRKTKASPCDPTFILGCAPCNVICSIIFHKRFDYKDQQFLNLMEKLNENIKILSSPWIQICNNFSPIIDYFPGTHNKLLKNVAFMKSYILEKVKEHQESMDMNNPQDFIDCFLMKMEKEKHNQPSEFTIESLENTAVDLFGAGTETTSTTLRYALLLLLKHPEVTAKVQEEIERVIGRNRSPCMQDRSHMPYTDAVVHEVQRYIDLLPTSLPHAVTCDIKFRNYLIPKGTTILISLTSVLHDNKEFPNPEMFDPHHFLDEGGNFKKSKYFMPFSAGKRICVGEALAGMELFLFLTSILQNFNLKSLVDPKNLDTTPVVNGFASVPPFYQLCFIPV

| SMILES | chromatographic logD [7] | IC50 [9] [µM] | IC50 [10] [µM] | IC50 [11] [µM] | solubility [14] [µM] | CLH [15] [µL/min/1e6 cells] | inhibition at 10 µM [16] [%] | other results |
| --- | --- | --- | --- | --- | --- | --- | --- | --- |
| C[C@@H](NC(=O)c1nn(-c2ccccc2Cl)c(-c2ccc(Cl)cc2)c1Cc1nn[nH]n1)c1ccc(OC(F)(F)F)cc1 | 2.9 | 0.021 | 0.0048 | > 10 |  |  |  | Drug uptake [1]: 1.3%; concentration at 6 h [2]: 0.16 µM; concentration at 6 h [3]: 4 µM; concentration at 6 h [4]: 35 µM; Kp at 6 h [5]: 5; Efficacy [6]: 11%; IC50 [8]: 0.0096 µM; Activity [12]: 11.8%; concentration at 6 h [13]: 12 µM |
| NC(=O)Cc1c(C(=O)NC2CCN(C(=O)C3CC3)CC2)nn(-c2ccccc2Cl)c1-c1ccc(Cl)cc1 |  |  |  |  | 81 (≈ 43.8 µg/mL) | 18 | 24 |  |
| O=C(O)Cc1c(C(=O)N2CCC(c3cccc(F)c3)CC2)nn(-c2ccccc2Cl)c1-c1ccc(Cl)cc1 | 2.7 | 0.032 | 0.0026 | > 10 |  |  |  | IC50 [8]: 0.0081 µM |
| NC(=O)Cc1c(C(=O)N2CCC(O)(c3ccc(F)cn3)CC2)nn(-c2ccccc2Cl)c1-c1ccc(Cl)cc1 |  | 0.0018 |  |  |  | 18 | 38 |  |

Further lines, with some results ahead:

| chromatographic logD [7] | IC50 [9] [µM] | IC50 [10] [µM] | IC50 [11] [µM] | solubility [14] [µM] | CLH [15] [µL/min/1e6 cells] | SMILES | inhibition at 10 µM [16] [%] | other results |
| --- | --- | --- | --- | --- | --- | --- | --- | --- |
| 2.5 |  |  | > 10 |  |  | N=C(N)Cc1c(C(=O)Nc2ccc(F)cc2)nn(-c2ccccc2Cl)c1-c1ccc(Cl)cc1 |  |  |
| 2.4 | 0.13 | 0.033 |  | 500 (≈ 296 µg/mL) | 45 | O=C(c1nn(-c2ccccc2Cl)c(-c2ccc(Cl)cc2)c1Cc1nn[nH]n1)N1CCC(Oc2cccc(F)c2)CC1 |  | inhibition at 10 µM [17]: 14% |
| 2.6 | 0.069 | 0.023 |  | 317 (≈ 194 µg/mL) | 16 | O=C(c1nn(-c2ccccc2Cl)c(-c2ccc(Cl)cc2)c1Cc1nn[nH]n1)N1CCC(Oc2cc(F)cc(F)c2)CC1 |  | inhibition at 10 µM [17]: 32% |
|  | 0.00045 | 0.0018 | 7.9 |  | 8 | NC(=O)Cc1c(C(=O)N2CCC(O)(c3ccc(F)cc3)CC2)nn(-c2ccccc2Cl)c1-c1ccc(Cl)cc1 | 93 | IC50 [18]: 0.8 µM |
